Assay results: PMC9028786, “The Ribosome Is the Ultimate Receptor for Trypsin Modulating Oostatic Factor (TMOF)” (Biomolecules, 2022)
Where two headings read alike, the source gives them in different places. Ends that are not written are not given here.

Experiments:
[1] = test system: Ae. aegypti larvae; details: fed AeaTMOF expressed by engineered Chlorella desiccate, Saccharomyces cerevisiae, and Pichia pastoris; cited from earlier work
From the text: (§1) Several of these ABC transporters with 80–100% similarity with the AeaTMOF receptor are also found in several Aedes, Anopheles, and ...

[2] = test system: ABC-tmfA transporter (accession number MK895491); details: cited from earlier work
From the text: as §1

[3] = test system: trypsin mRNA in the gut epithelial cells; details: gut epithelial cells of Ae. aegypti and Neobellieria bullata; cited from earlier work
From the text: as §1

[4] = test system: late trypsin transcript; details: cited from earlier work
From the text: (§2) Aedes aegypti Trypsin Modulating Oostatic Factor (AeaTMOF), a proline-rich peptide (YDPAPPPPPP), was originally isolated from the ovaries of female Ae. aegypti. AeaTMOF controls the biosynthesis of trypsin-like enzymes in the midgut epithelial cells of several species of mosquito including Aedes. aegypti, Culex quinquefasciatus, Culex. nigripalpus, and Anopheles albimanus. […] AeaTMOF was also ...

[5] = test system: late trypsin transcript in the gut epithelial cells; details: circulating in hemolymph of females after the blood meal; cited from earlier work
From the text: as §2

[6] = test system: bacterial 70 S ribosome; assay: Inhibition of luciferase translation in E. coli S30 extract; format: biochemical, Escherichia coli; details: 2 h at 37 °C
Description: To test the effect of AeaTMOF and Oncocin112 (1–13) on the translation of Luciferase by the bacterial 70 S ribosome, an E. coli S30 lysate extract system for circular DNA (Promega) containing a plasmid pBestluc DNA vector (4486 bp) (1 mg/mL) 0.3 μL, amino acid mixture without methionine (1 mM) 1.25 μL, amino acid mixture without Leucine (1 mM) 1.25 μL, S30 premix (including ribosomes) without amino acids 5 μL, S30 extract circular 3.5 μL, RNasin (8 U, 112 ng) 0.2 μL, different concentrations of AeaTMOF or Oncocin112 (1–13) (0.001 μM to 1000 μM), and nuclease-free water to a volume of 12.5 μL were incubated for 2 h at 37 °C. […] After incubation, 87.5 μL of GLO lysis buffer (Promega) containing beetle luciferin was added, mixed, and aliquots (5 μL) were removed, and their luminescence read in a GLOMAX multidetector system. […] The decrease in luminescence (% ± SEM) in the presence of increasing log AeaTMOF or Oncocin112 (1–13) concentrations was then plotted using GrapPad Prism 3.

[7] = test system: E. coli mutant cells CGSC strain 8547 SbmA^- expressing only ABC-tmfA importer; assay: Growth/viability of E. coli mutant CGSC strain 8547 SbmA^- expressing ABC-tmfA importer; format: cell-based, Escherichia coli
Description: E. coli CGSC strain […] lacking the SbmA importer expressing the ABCtmfA receptor/importer was prepared using plasmid pTAC-MAT-2 ABCtmfA importer/receptor as described earlier. [3,4,5 ^3H]Leucine 250 μCi, Spc Act 100–150 Ci/mmol was purchased from Perkin Elmer (Waltham, MA, USA). AeaTMOF-FITC (H-YDPAPPPPPPK(FITC)K-OH) was synthesized at the University of Colorado Anschutz School of Medicine protein core. AeaTMOF-FITC was purified by HPLC showing a single peak, and mass spectrometry analysis of the peak identified the 3 expected ions at 455.7, 607.3, and 910.3, showing an expected Mr 1019.56 as was described earlier. Synthetic AeaTMOF (H-YDPAPPPPPP-OH) and a short Oncocin112(1–13) (H-VDKPPYLPRPRPP-OH), a 13 amino acids oncocin112 peptide, 6 amino acids shorter than the original oncocin112 of 19 amino acids, were synthesized and purified by HPLC [16]. After HPLC purifications of AeaTMOF, oncocin112 (1–13), and AeaTMOF-FITC, the TFA ions were exchanged with phosphate ions.
(§3) We aimed to find out if AeaTMOF can also stop bacterial growth as, was shown for the proline-rich Oncocin112 that binds to the bacterial ribosome, stopping protein translation, bacterial growth, and causing bacterial death. E. coli CGSC strain7636 (2.7 × 10^4 cells) SbmA^+, expressing the proline-rich peptides importer SbmA, were incubated in 96-well plate containing 100 μL/well of LB medium, 0.4 mM of IPTG, 0.1 mM of ampicillin, and different concentrations of AeaTMOF and Oncocin112 (1–13) (3 mM and 10 mM) in different wells. The 96-well plate was incubated at 37 °C for 18 h and bacterial growth was followed at 630 nm using Biotech ElX808 absorbance microplate reader. Control wells contained bacterial cells growing without AeaTMOF or oncocin112 (1–13). […] After the incubations in the presence of Oncocin112 (1–13) or AeaTMOF of 10 mM and 3 mM, aliquots (0.5 μL) were removed from each well and spread on LB agar plates containing 0.1 mM of ampicillin, and the plates were incubated overnight at 37 °C and viable colonies were counted. Incubations were done in triplicates and the experiments were repeated twice. Results are expressed as means of three determinations ± SEM.

[8] = test system: female mosquitoes; details: injection after blood meal; cited from earlier work
[9] = test system: E. coli CGSC strain7636 cells expressing SbmA^+; assay: Growth/viability of E. coli CGSC strain7636 expressing SbmA; format: cell-based, Escherichia coli; details: 3 and 10 mM peptide, 37 °C, 18 h, p < 0.05 vs control
Description: as §3

[10] = test system: luciferase; assay: Effect on activity of pre-synthesized luciferase; format: biochemical, Beetle; details: S30 extract with pBESTluc for 4 h without peptide, then AeaTMOF 1 to 100 μM added; results not shown
Description: Incubations of E. coli S30 extract synthesizing Beetle luciferase in the presence of an increasing concentration of AeaTMOF (0.001 to 750 μM) stopped the biosynthesis of luciferase, diminishing its activity on Beetle luciferin as measured in luminescence units. The activity of the in vitro synthesized luciferase on Beetle luciferin at very low concentration of AeaTMOF (0.001 μM) was similar to luciferase activity without AeaTMOF, and this luminescence was used to calculate the decrease in luminescence (%) after incubation with increasing concentrations of AeaTMOF (Figure 1A). Higher concentrations of AeaTMOF (higher than 0.001 μM) caused a linear decrease in the synthesis of luciferase and a decline in luminescence (%) reaching IC50 (inhibition concentration of 50%) at 1 μM (Figure 1A). […] AeaTMOF is not an inhibitor of luciferase.

[11] = test system: S. frugiperda 80S ribosomes; assay: Inhibition of larval Ae. aegypti late trypsin translation in TnT T7 insect cell extract; format: biochemical, Spodoptera frugiperda; details: TnT T7 insect cell extract from S. frugiperda Sf21, pFA25A ICE T7 flexi-late larval trypsin, [3H]leucine, 30 °C, 4 h, AeaTMOF 0.01–750 μM; mean of three determinations; linear regression; read-out: IC50, inhibition of Ae. aegypti late larval [3H]trypsin biosynthesis

Sequence: YDPAPPPPPP [AeaTMOF]
- Effect on larvae [1]: stopped larval trypsin biosynthesis and caused larval starvation and death
- Binding to gut receptor/importer [2]: binds a gut-specific receptor ABC-tmfA transporter
- Effect on translation of trypsin mRNA [3]: stop the translation of trypsin mRNA
- Inhibition of translation of late trypsin transcript ([4]; AeaTMOF expressed on coat protein of Tobacco Mosaic Virus, fed to insects): stopped the translation of the trypsin transcript in the gut epithelial cells
- Inhibition of translation of late trypsin transcript [4]: inhibit the translation of the late trypsin transcript
- Effect on translation of late trypsin transcript [5]: affects the translation of the late trypsin transcript in the gut epithelial cells
- Inhibition of luciferase biosynthesis at lowest concentration ([6]; AeaTMOF at 0.001 μM, Oncocin112 (1–13) at 0.01 μM): do not inhibit the biosynthesis of luciferase
- Concentration of complete inhibition of luciferase biosynthesis ([6]; E. coli S30 extract, luminescence): 250 to 750 µM
- IC50 ([6]; E. coli S30 lysate, pBestluc DNA, peptide 0.001 to 750 μM, luminescence read-out, mean of three determinations, read-out: IC50, inhibition of luciferase biosynthesis (luminescence)): 1 µM
- E. coli growth ([7]; SbmA^- cells expressing ABC-tmfA importer, 3 and 10 mM peptide, 37 °C, 18 h, 630 nm, p < 0.05 for inhibition): significantly (p < 0.05) inhibited
- E. coli cell growth (discussion) ([7]; cells that only expressed ABCtmfA receptor/importer, up to 10 mM): inhibiting protein synthesis and cell growth
- Importer used ([7]; inferred from growth of SbmA^+ and SbmA^- ABC-tmfA E. coli, 3 and 10 mM): can use the mosquito ABCtmfA importer, as well as the bacterial SbmA importer
- Effect on blood-fed female mosquitoes [8]: only inhibits trypsin biosynthesis, and as a result the blood meal is not digested and egg development is inhibited, making the female mosquitoes sterile but not killing them
- E. coli growth ([9]; 630 nm): significantly inhibited the growth of the E. coli cells
- Viable colonies at end of incubation ([9]; initial 2.7 × 10^4 cells, LB medium, plated on LB agar, triplicates): 4–10 colonies
- Effect on activity of luciferase synthesized in vitro [10]: did not affect the activity of luciferase
- IC50 [11]: 1.8 µM
